Results published in patent US9382517B2, “HCV full-length infectious cell culture systems and applications thereof” (priority 2012, dated 2016).

Assays:
Huh7.5 cells = assay: Cytotoxicity assay, non-cytotoxic dose range (Example 3); format: cell-based, human; conditions: at the doses used in this study
Method: A cytotoxicity assay was performed for PSI-7977, as we had not used this drug previously. The non-cytotoxic dose range for telaprevir, boceprevir, simeprevir, daclatasvir, and interferon-α2b was determined.

TN full-length virus = assay: HCV antiviral treatment of Huh7.5 cells infected with TN full-length virus (first passage TN_LSGF/A1226G/Q1773H); format: cell-based, hepatitis C virus (genotype 1a); conditions: for inhibition of TN full-length virus: DAAs 24 hours post-infection, interferon-α2b 24 and 48 hours, HCV positive cells 72 hours post-infection
Method: (§1) Naïve Huh7.5 cells were infected with first passage virus stock of TN full-length recombinant TN_LSGF/A1226G/Q1773H; the ORF sequence of this virus stock is shown in FIGS. 16 and 17. A J6/JFH1 virus stock was treated in parallel. Antivirals were administered 24 hours post infection at the indicated doses; interferon-α2b was also administered 48 hours post infection. The number of HCV positive cells per well was determined 72 hours post infection. (A) Dose response curves for treatments with lead compound protease inhibitors telaprevir (VX-950), boceprevir (SCH503034), and simeprevir (TMC435), NS5A inhibitor daclatasvir (BMS-790052), and NS5B inhibitor PSI-7977, as well as interferon-α2b. Values are means of triplicate determinations with SEM. (B) Median effective concentrations (EC50) of the used inhibitors against the indicated viruses. Values for EC50 and 95% confidence interval are shown.
(§2) HCV antiviral treatment. HCV DAAs were purchased from Acme Bioscience (Palo Alto, Calif.) and dissolved in dimethyl sulfoxide. Inerferon-α2b was purchased from Schering-Plough (Kenilworth, N.J.).
Briefly, Huh7.5 cells grown in poly-D-lysine-coated 96-well plates (Nunc) were infected with HCV and treated with DAAs 24 hours post-infection. Treatment with interferon-α2b was performed at 24 and 48 hours post-infection. Single HCV Core and NS5A positive cells were determined 72 hours post-infection by immunostaining with combination of C7-50 (Enzo Life Sciences) and 9E10 antibodies. Dose response curves were fitted and EC50 values with 95% confidence interval were calculated in GraphPad Prim 4 (Graphpad).

J6 full-length virus = assay: HCV antiviral treatment of Huh7.5 cells infected with J6 full-length virus (fourth passage J6_LSGΔ33U); format: cell-based, hepatitis C virus (genotype 2a); conditions: for inhibition of full-length J6 culture viruses: treatment 24 and 48 hours post-infection, HCV positive cells counted 72 hours post-infection
Method: (§3) Naïve Huh7.5 cells were infected with indicated viruses, and antiviral treatments were carried out at 24 and 48 hours post-infection. The HCV positive cells were counted 72 hours post-infection as previously described. Fourth passage J6 full-length J6_LSGΔ33U virus (Table 3) was used for treatment. Treatment experiments with recombinants J6^5′UTR-NS2/JFH1, J6^Core-NS2,NS3 protease, NS4A/JFH1 and J6^Core-NS2,NS5A/JFH1 were included for comparison. (A) Treatment with protease inhibitors (boceprevir and TMC435) and the NS5A inhibitor daclatasvir (BMS-790052). (B) Treatment with NS5B inhibitors. (C) Median effective concentrations (EC50) of the used inhibitors against the indicated viruses. *, range of two experiments; experiments with the lowest EC50 shown in A or B. In A and B, values are means of triplicate determinations.
(§4) HCV antiviral treatment. HCV antivirals were purchased from Acme Bioscience (Palo Alto, Calif.) and dissolved in dimethyl sulfoxide. Huh7.5 cells grown in poly-D-lysine-coated 96-well plates (Nunc) were infected with HCV and treated with antivirals 24 and 48 hours post-infection as previously described. Single HCV core positive cells were determined by immunostaining with C7-50 (Enzo Life Sciences) 72 hours post-infection.

J6/JFH1 = assay: HCV antiviral treatment of Huh7.5 cells infected with J6/JFH1 virus stock; format: cell-based, hepatitis C virus (genotype 2a); conditions: stated for HCV of genotypes 1 and 2
Method: as §1, §2
Briefly, Huh7.5 cells grown in poly-D-lysine-coated 96-well plates (Nunc) were infected with HCV and treated with DAAs 24 hours post-infection. […] Single HCV Core and NS5A positive cells were determined 72 hours post-infection by immunostaining with combination of C7-50 (Enzo Life Sciences) and 9E10 antibodies. […]

[1] = tested on: J6/JFH1-based recombinant with TN NS5A; assay: HCV antiviral treatment, J6/JFH1-based recombinant with TN NS5A; format: cell-based; conditions: Hepatitis C virus, read-out: Median effective concentration (EC50)
[2] = tested on: J6/JFH1 with J6-specific NS3/NS4A protease; assay: HCV antiviral treatment of Huh7.5 cells infected with J6/JFH1 with J6-specific NS3/NS4A protease; format: cell-based, hepatitis C virus (genotype 2a); conditions: J6/JFH1 with J6-specific NS3/NS4A protease compared to J6^5′UTR-NS2/JFH1
Method: as §3, §4

[3] = J6 virus compared to J6^5′UTR-NS2/JFH1

Molecule: interferon-α2b
- cytotoxic effects (Huh7.5 cells): No cytotoxic effects
- inhibition of TN full-length virus (TN full-length virus): dose-dependently inhibited

Molecule: CNC(=O)c1c(-c2ccc(F)cc2)oc2cc(N(CCO)S(C)(=O)=O)c(C3CC3)cc12 [HCV-796]
- fold lower EC50 compared to J6^5′UTR-NS2/JFH1 (J6 full-length virus; [3]): ~2 fold
- inhibition of full-length J6 culture viruses (J6 full-length virus): inhibited

Molecule: CC(C)OC(=O)[C@H](C)N[P@](=O)(OC[C@H]1O[C@@H](n2ccc(=O)[nH]c2=O)[C@](C)(F)[C@@H]1O)Oc1ccccc1 [PSI-7977]
- cytotoxic effects (Huh7.5 cells): No cytotoxic effects
- inhibition of TN full-length virus (TN full-length virus): dose-dependently inhibited
- inhibition of HCV of genotype 2 (J6/JFH1) (J6/JFH1): efficiently inhibit

Molecule: CC(C)[C@H](N)C(=O)O[C@@H]1[C@@H](CO)O[C@@H](n2ccc(N)nc2=O)[C@]1(C)O [NM283]
- fold lower EC50 compared to J6^5′UTR-NS2/JFH1 (J6 full-length virus; [3]): ~6 fold
- inhibition of full-length J6 culture viruses (J6 full-length virus): inhibited

Molecule: CC(C)(C)NC(=O)N[C@H](C(=O)N1C[C@H]2[C@@H]([C@H]1C(=O)NC(CC1CCC1)C(=O)C(N)=O)C2(C)C)C(C)(C)C (stereo partly drawn) [boceprevir]
- cytotoxic effects (Huh7.5 cells): No cytotoxic effects

Molecule: COC(=O)N[C@H](C(=O)N1CCC[C@H]1c1nc(-c2ccc(-c3ccc(-c4c[nH]c([C@@H]5CCCN5C(=O)[C@@H](NC(=O)OC)C(C)C)n4)cc3)cc2)c[nH]1)C(C)C [daclatasvir]
- cytotoxic effects (Huh7.5 cells): No cytotoxic effects
- EC50 (TN full-length virus; Hepatitis C virus, TN full-length virus, 72 hours post-infection, read-out: Median effective concentration (EC50)): 0.032 nM
- EC50 [1]: 0.042 nM

Molecule: CCC[C@H](NC(=O)[C@@H]1[C@H]2CCC[C@H]2CN1C(=O)[C@@H](NC(=O)[C@@H](NC(=O)c1cnccn1)C1CCCCC1)C(C)(C)C)C(=O)C(=O)NC1CC1 [telaprevir]
- cytotoxic effects (Huh7.5 cells): No cytotoxic effects

Molecule: C[C@@]1(F)[C@H](O)[C@@H](CO)O[C@H]1n1ccc(N)nc1=O [PSI-6130]
- fold lower EC50 compared to J6^5′UTR-NS2/JFH1 (J6 full-length virus; [3]): around 4 fold
- inhibition of full-length J6 culture viruses (J6 full-length virus): inhibited

Molecule: COc1ccc2c(O[C@@H]3C[C@H]4C(=O)N[C@]5(C(=O)NS(=O)(=O)C6CC6)C[C@H]5/C=C\CCCCN(C)C(=O)[C@@H]4C3)cc(-c3nc(C(C)C)cs3)nc2c1C [TMC435, simeprevir]
- fold higher EC50 than that found for J6^5′UTR-NS2/JFH1 [2]: 2-3 fold
- cytotoxic effects (Huh7.5 cells): No cytotoxic effects
- inhibition of TN full-length virus (TN full-length virus): dose-dependently inhibited
- fold higher EC50 than that found for J6^5′UTR-NS2/JFH1 (J6 full-length virus; [3]): 2-3 fold
- inhibition of full-length J6 culture viruses (J6 full-length virus): inhibited
